Laboratory results published in PMC8123576 (International Journal of Molecular Sciences, 2021).
Read-outs that look alike come from different tables or passages of the source.

Experiments:
[1] = tested on: aflatoxin accumulation by A. flavus; assay: microbe, parasite or virus in culture; format: cell-based, Aspergillus flavus
A. cepa = A. cepa toxicity test (root length); format: in vivo, Allium cepa; settings: in vivo
Protocol: A. cepa toxicity test: Twelve equal-sized young onion bulbs were exposed for 96 h in the dark to different concentrations of compounds dissolved in DMSO, changing the sample solution every day. […] Root macroscopic parameters such as turgescence, consistency, change in color and root tip shape, were used as toxicity indexes.

[2] = tested on: S. typhimurium TA98 and TA100 strains; assay: Ames test, overall mutagenicity verdict in bacteria; settings: TA98 and TA100, -S9 and +S9
A. flavus = assay: microbe, parasite or virus in culture; format: cell-based, Aspergillus flavus; settings: for inhibition at 100 µM: Aspergillus flavus, read-out: G.I. (%) (A. flavus growth inhibition); for impact on fungal growth: 10 to 100 µM, complexes compared with their ligand
A. cepa root cells = settings: for DNA damage as chromosomal aberrations in Allium root cells: 10.0 µM
Protocol: To detect micronuclei and chromosomal aberrations six equal-sized pre-germinated young bulbs per sample were exposed for 24 h to sample dilutions. The bulbs dedicated to the micronuclei test underwent an additional treatment in the saline solution for 44 h of recovery time to cover two rounds of mitosis so that damage induced in chromosomes during mitosis to be visible as micronuclei in interphase cells. Then all the roots were fixed in acetic acid and ethanol (1:3) for 24 h and lastly stored in 70% ethanol. The negative control was DMSO in Rank’s solution (the dose of DMSO corresponding to volume of samples) and positive control was maleic hydrazide (10^−2 M, 6 h exposure). […] All experiments were performed in duplicate.

Hs27 cells = assay: Cytotoxicity assay (CellTiter 96 AQueous One) on Hs27; format: cell-based, human; settings: for viability: Hs27, 24 h, dose 0 = 100.00, read-out: Growth inhibition data; for GI50: Hs27 cells, 24 h treatment
Protocol: The best antifungal and/or antiaflatoxigenic compounds were tested to determine their cytotoxic activity against human normal cell lines deriving from lung (HFL1, ATCC and CCL-153), skin (Hs27, ATCC, CRL1634) and colon (Crl1790, ATCC, CCD 841 CoN) and a cell line deriving from a hematological tumor (U937, ATCC and CRL-3253). These different cell lines have been chosen to simulate the different human exposition routes to pesticide. Cell culture conditions have been previously reported. Compound cytotoxicity was determined using CellTiter 96® AQueous One Solution Cell Proliferation Assay (Promega Corporation, Madison, WI, USA). The very detailed protocol was described by Bartoli et al.. In brief, cells were seeded in a 96-well plate at a density of 5000 cells/well and after 24 h cells were treated with different concentrations of the compounds (0.5–1–5–10–50–100 µM). After the treatment period (24 h), the CellTiter Reagent was added to each well (20 µL/well) and the plate incubated for 4 h at 37 °C. The plate was then read at 485 nm in a multiwell plate reader (TECAN SpectraFluor Plus, Männedorf, Switzerland).

[3] = Aspergillus flavus, read-out: A.I. (%) (aflatoxin accumulation inhibition)

CN(C)C(=S)NN=CC=Cc1ccccc1 [Cinnamaldehyde 4,4‐dimethyl thiosemicarbazone]
A.I. (%) (aflatoxin accumulation inhibition) ([1]; 50 µM): 100%
A.I. (%) (aflatoxin accumulation inhibition) ([1]; 100 µM): 100%
effect on A. cepa root length (A. cepa): reduction of A. cepa root length
mutagenicity in bacteria [2]: slight mutagenic activity

CCCCC(=NNC(N)=S)c1ccccc1 [Valerophenone thiosemicarbazone]
G.I. (%) (A. flavus growth inhibition) (A. flavus; 100 µM): 54,0%
A.I. (%) (aflatoxin accumulation inhibition) ([1]; 100 µM): 55,0%
DNA damage as chromosomal aberrations in Allium root cells (A. cepa root cells): induced DNA damage as chromosomal aberrations

Cu(II) 2‐isopropyl benzaldehyde‐2‐methyl‐thiosemicarbazone di acetate
G.I. (%) (A. flavus growth inhibition) (A. flavus; 50 µM): 90,0%
G.I. (%) (A. flavus growth inhibition) (A. flavus; 100 µM): 95%
A.I. (%) (aflatoxin accumulation inhibition) ([1]; 50 µM): 71,4%
A.I. (%) (aflatoxin accumulation inhibition) ([1]; 100 µM): 86,7%

Cu(II) jasmone bisthiosemicarbazonate
G.I. (%) (A. flavus growth inhibition) (A. flavus; 100 µM): 74,3%
A.I. (%) (aflatoxin accumulation inhibition) ([1]; 50 µM): 78,0%
A.I. (%) (aflatoxin accumulation inhibition) ([1]; 100 µM): 97,0%

Cu(II) apocynin bisthiosemicarbazonate
G.I. (%) (A. flavus growth inhibition) (A. flavus; 50 µM): 61,0%
G.I. (%) (A. flavus growth inhibition) (A. flavus; 100 µM): 72,0%
A.I. (%) (aflatoxin accumulation inhibition) ([1]; 50 µM): 52,0%
A.I. (%) (aflatoxin accumulation inhibition) ([1]; 100 µM): 72,0%

Cu(II) fenchone bisthiosemicarbazonate
G.I. (%) (A. flavus growth inhibition) (A. flavus; 100 µM): 57,0%
A.I. (%) (aflatoxin accumulation inhibition) ([1]; 50 µM): 62,0%
A.I. (%) (aflatoxin accumulation inhibition) ([1]; 100 µM): 84,0%

Zn(II) Cinnamaldehyde bisthiosemicarbazonate
G.I. (%) (A. flavus growth inhibition) (A. flavus; 50 µM): 56,0%
G.I. (%) (A. flavus growth inhibition) (A. flavus; 100 µM): 76,0%
A.I. (%) (aflatoxin accumulation inhibition) ([1]; 50 µM): 99,0%
A.I. (%) (aflatoxin accumulation inhibition) ([1]; 100 µM): 100%

CN(C)C(=S)NN=Cc1ccccc1 [benzaldehyde 4,4'‐dimethyl thiosemicarbazone]
A.I. (%) (aflatoxin accumulation inhibition) ([1]; 50 µM): 76,0%
A.I. (%) (aflatoxin accumulation inhibition) ([1]; 100 µM): 90,0%
mitotic index / interference with cell division (A. cepa root cells; respect to the control): lower mitotic index
mutagenicity in bacteria [2]: without showing any mutagenic effect

Mn(II) 2‐acetylthiophene bisthiosemicarbazonate
G.I. (%) (A. flavus growth inhibition) (A. flavus; 100 µM): 53,0%
A.I. (%) (aflatoxin accumulation inhibition) ([1]; 50 µM): 61,0%
A.I. (%) (aflatoxin accumulation inhibition) ([1]; 100 µM): 92,0%

CN(N=CC=Cc1ccccc1)C(N)=S [Cinnamaldehyde 2‐methyl thiosemicarbazone]
A.I. (%) (aflatoxin accumulation inhibition) ([1]; 100 µM): 64,0%
DNA damage as chromosomal aberrations in Allium root cells (A. cepa root cells): induced DNA damage as chromosomal aberrations

Bis(2-acetylfuranthiosemicarbazonato) zinc(II) [2-acfurTS-Zn]
impact on fungal growth compared with the ligand (A. flavus; 100 µM): slightly less effective
viability (Hs27 cells; 0.5 µM): 100 ± 7.72%
viability (Hs27 cells; 1 µM): 100 ± 7.88%
viability (Hs27 cells; 5 µM): 100 ± 7.7%
viability (Hs27 cells; 10 µM): 100 ± 12.7%
viability (Hs27 cells; 50 µM): 16.5 ± 0.62%
viability (Hs27 cells; 100 µM): 15.2 ± 0.73%
GI50 (Hs27 cells): 30.5 µM

Bis(2-acetylthiophenethiosemicarbazonato) zinc(II) [2-actpTS-Zn]
A.I. (%) (aflatoxin accumulation inhibition) ([1]; 50 µM): 60,4%
A.I. (%) (aflatoxin accumulation inhibition) ([1]; 100 µM): 85,4%
viability (Hs27 cells; 0.5 µM): 91.6 ± 7.33%
viability (Hs27 cells; 1 µM): 94.3 ± 2.25%
viability (Hs27 cells; 5 µM): 81.9 ± 5.34%
viability (Hs27 cells; 10 µM): 60.1 ± 1.57%
viability (Hs27 cells; 50 µM): 15.5 ± 0.56%
viability (Hs27 cells; 100 µM): 16 ± 1.39%
GI50 (Hs27 cells): 15.4 µM

NC(=S)N/N=C\C=C\c1ccccc1 [Cinnamaldehyde thiosemicarbazone]
inhibition at 100 µM (A. flavus; 100 µM): 56%
inhibition at 50 µM [1, 3]: 73.1%
inhibition at 100 µM [1, 3]: 79%

CC(C)c1cccc(C=NN(C)C(N)=S)c1 [3‐isopropyl benzaldehyde‐2‐methyl‐thiosemicarbazone]
G.I. (%) (A. flavus growth inhibition) (A. flavus; 100 µM): 70,6%
A.I. (%) (aflatoxin accumulation inhibition) ([1]; 100 µM): 62,7%

O=C(O)c1ccc2c(c1)C(=O)c1ccccc1C2=O [Anthraquinone‐2‐carboxylic acid]
A.I. (%) (aflatoxin accumulation inhibition) ([1]; 50 µM): 56,0%
A.I. (%) (aflatoxin accumulation inhibition) ([1]; 100 µM): 80,0%
effect on A. cepa root length (A. cepa): reduction of A. cepa root length
DNA damage as chromosomal aberrations in Allium root cells (A. cepa root cells): induced DNA damage as chromosomal aberrations

Bis(2-acetylfuranthiosemicarbazonato) copper(II) [2-acfurTS-Cu]
G.I. (%) (A. flavus growth inhibition) (A. flavus; 100 µM): 63,4%
impact on fungal growth (A. flavus): higher fungistatic activity
A.I. (%) (aflatoxin accumulation inhibition) ([1]; 100 µM): 65,7%
viability (Hs27 cells; 0.5 µM): 92.8 ± 5.53%
viability (Hs27 cells; 1 µM): 99.4 ± 4.63%
viability (Hs27 cells; 5 µM): 98.9 ± 12.1%
viability (Hs27 cells; 10 µM): 100 ± 5.93%
viability (Hs27 cells; 50 µM): 36.9 ± 6.49%
viability (Hs27 cells; 100 µM): 35.6 ± 1.89%
GI50 (Hs27 cells): 39 µM

Cu(II) syringaldehyde bisthiosemicarbazonate
G.I. (%) (A. flavus growth inhibition) (A. flavus; 100 µM): 61,0%
A.I. (%) (aflatoxin accumulation inhibition) ([1]; 100 µM): 61,0%

Bis(2-acetylthiophenethiosemicarbazonato) copper(II) [2-actpTS-Cu]
A.I. (%) (aflatoxin accumulation inhibition) ([1]; 50 µM): 56,5%
A.I. (%) (aflatoxin accumulation inhibition) ([1]; 100 µM): 88,6%
viability (Hs27 cells; 0.5 µM): 90.7 ± 4.69%
viability (Hs27 cells; 1 µM): 87.1 ± 3.53%
viability (Hs27 cells; 5 µM): 72.1 ± 3.35%
viability (Hs27 cells; 10 µM): 16.2 ± 0.84%
viability (Hs27 cells; 50 µM): 14.6 ± 0.85%
viability (Hs27 cells; 100 µM): 15 ± 0.2%
GI50 (Hs27 cells): 6.2 µM

Cu(II) Quinolinecarboxaldehyde bisthiosemicarbazonate
G.I. (%) (A. flavus growth inhibition) (A. flavus; 100 µM): 60,7%
A.I. (%) (aflatoxin accumulation inhibition) ([1]; 50 µM): 55,7%
A.I. (%) (aflatoxin accumulation inhibition) ([1]; 100 µM): 88,0

Ni(II) citronellal bisthiosemicarbazonate
G.I. (%) (A. flavus growth inhibition) (A. flavus; 100 µM): 58,9%
A.I. (%) (aflatoxin accumulation inhibition) ([1]; 100 µM): 82,1%

CC(=NNC(N)=S)c1ccco1 [2-acfurTS, 2-acetylfuranthiosemicarbazone]
impact on fungal growth (A. flavus): modest inhibitory activity
maximum aflatoxin accumulation inhibition [1]: ≤ 28.7%

O=Cc1ccc2c(c1)C(=O)c1ccccc1C2=O [2‐Formylanthraquinone]
inhibition at 100 µM (A. flavus; 100 µM): 58%
DNA damage as chromosomal aberrations in Allium root cells (A. cepa root cells): induced DNA damage as chromosomal aberrations

NC(=S)NNC(=O)c1ccc2c(c1)C(=O)c1ccccc1C2=O [Anthraquinone‐2‐carbonyl‐1‐thiosemicarbazide]
G.I. (%) (A. flavus growth inhibition) (A. flavus; 100 µM): 58,0%
mutagenicity in bacteria [2]: slight mutagenic activity

Cu(II) bisvanillin thiosemicarbazonate
G.I. (%) (A. flavus growth inhibition) (A. flavus; 100 µM): 65,5%
A.I. (%) (aflatoxin accumulation inhibition) ([1]; 50 µM): 53,0%
A.I. (%) (aflatoxin accumulation inhibition) ([1]; 100 µM): 77,0%

Plumbagin thiosemicarbazone
G.I. (%) (A. flavus growth inhibition) (A. flavus; 100 µM): 61,9%
A.I. (%) (aflatoxin accumulation inhibition) ([1]; 100 µM): 83,0%

Ni(II) Cuminaldehyde bisthiosemicarbazonate
G.I. (%) (A. flavus growth inhibition) (A. flavus; 50 µM): 84,0%
G.I. (%) (A. flavus growth inhibition) (A. flavus; 100 µM): 90,0%
A.I. (%) (aflatoxin accumulation inhibition) ([1]; 50 µM): 91,5%
A.I. (%) (aflatoxin accumulation inhibition) ([1]; 100 µM): 96,0%
